Results taken from the OligoGym collection.
After the bases stand the sugars from the 5' end (letter, count) and the backbone: PS all phosphorothioate, else s phosphorothioate and o phosphodiester by linkage. Methylation of C is not given here. e = 2'-O-(2-methoxyethyl) (MOE); k = constrained ethyl (cEt); d = 2'-deoxy (DNA); m = 2'-O-methyl

Biological target: HSD17B13
Conditions: ASO, HepaRG

Which target mRNA inhibition (1 µM) does the source give for TAGAGAGCGATAGATC (sugars k3 d10 k3, PS) here?
The target mRNA inhibition was 22%.

For “TAGAGTCGGTCACCTT (sugars kkdddddddddkekek, PS)”, which target mRNA inhibition (1 µM) is on record?
Its target mRNA inhibition is 48%.

For “TAGCCAGTACAGTTCC (sugars k3 d1 m1 d8 k3, PS)”, which target mRNA inhibition (1 µM) is on record?
The target mRNA inhibition was 70%.

With TAGCCAGTACAGTTCC (sugars k3 d10 k3, PS) as the sequence, how does the target mRNA inhibition (1 µM) read?
The target mRNA inhibition was 52%.

“TAGCCAGTACAGTTCC (sugars kkdddddddddkekek, PS)” was tested. Which target mRNA inhibition (1 µM) did it give?
Its target mRNA inhibition is 57%.

TAGCTAATGTATGAGG (sugars k3 d10 k3, PS) was tested. Which target mRNA inhibition (1 µM) did it give?
The target mRNA inhibition was 48%.

With TAGCTATTGTCTTTGA (sugars k3 d10 k3, PS) as the sequence, how does the target mRNA inhibition (1 µM) read?
Its target mRNA inhibition is 63%.

How did the target mRNA inhibition (1 µM) turn out when TAGCTTAAACTCCAAT (sugars k3 d10 k3, PS) was run?
Its target mRNA inhibition is 60%.

With TAGCTTTTGTCCACCT (sugars k3 d10 k3, PS) as the sequence, how does the target mRNA inhibition (1 µM) read?
Its target mRNA inhibition is 60%.

TAGGAAAGCTCATGGT (sugars k3 d10 k3, PS) was tested. Which target mRNA inhibition (1 µM) did it give?
Its target mRNA inhibition is 27%.

For TAGGAGTAGATGATGG (sugars k3 d10 k3, PS), which target mRNA inhibition (1 µM) is on record?
Its target mRNA inhibition is 15%.

For TAGGATTAATCATGGG (sugars k3 d10 k3, PS), which target mRNA inhibition (1 µM) is on record?
Its target mRNA inhibition is 47%.

How did the target mRNA inhibition (1 µM) turn out when TAGGCTAAACCCTGGA (sugars k3 d10 k3, PS) was run?
The target mRNA inhibition was 64%.

With TAGGTAGCTAATGTAT (sugars k3 d10 k3, PS) as the sequence, how does the target mRNA inhibition (1 µM) read?
Its target mRNA inhibition is 34%.

Which target mRNA inhibition (1 µM) does the source give for “TAGTAATCACAAGTAA (sugars k3 d9 k3 e1, PS)” here?
Its target mRNA inhibition is 65%.

For TAGTAATTGCATCTGC (sugars k3 d10 k3, PS), which target mRNA inhibition (1 µM) is on record?
The target mRNA inhibition was 51%.

How did the target mRNA inhibition (1 µM) turn out when TAGTAATTGCTATAGT (sugars k3 d10 k3, PS) was run?
The target mRNA inhibition was 7%.

Which target mRNA inhibition (1 µM) does the source give for TAGTACCAAGACACTA (sugars k3 d10 k3, PS) here?
Its target mRNA inhibition is 27%.

Which target mRNA inhibition (1 µM) does the source give for “TAGTATAGTTATCTTC (sugars k3 d9 k3 e1, PS)” here?
Its target mRNA inhibition is 28%.

For “TAGTATAGTTATCTTC (sugars kkdddddddddkekek, PS)”, which target mRNA inhibition (1 µM) is on record?
The target mRNA inhibition was 34%.

How did the target mRNA inhibition (1 µM) turn out when TAGTCTGCCTGCCTAT (sugars k3 d10 k3, PS) was run?
Its target mRNA inhibition is 44%.

“TAGTCTTCAGCAAAGT (sugars k3 d1 m1 d8 k3, PS)” was tested. Which target mRNA inhibition (1 µM) did it give?
Its target mRNA inhibition is 41%.

With TAGTCTTGATGTAGTG (sugars k3 d10 k3, PS) as the sequence, how does the target mRNA inhibition (1 µM) read?
Its target mRNA inhibition is 55%.

How did the target mRNA inhibition (1 µM) turn out when “TAGTCTTGATGTAGTG (sugars kkdddddddddkekek, PS)” was run?
Its target mRNA inhibition is 43%.

With “TAGTGGACTTCATTAG (sugars kkdddddddddkekek, PS)” as the sequence, how does the target mRNA inhibition (1 µM) read?
The target mRNA inhibition was 41%.

Which target mRNA inhibition (1 µM) does the source give for TAGTGGGAGTCGGATT (sugars k3 d10 k3, PS) here?
The target mRNA inhibition was 54%.

For TAGTGTAGAATTGTCT (sugars k3 d10 k3, PS), which target mRNA inhibition (1 µM) is on record?
The target mRNA inhibition was 46%.

How did the target mRNA inhibition (1 µM) turn out when TAGTTTTCGGCACTCA (sugars k3 d10 k3, PS) was run?
Its target mRNA inhibition is 35%.

How did the target mRNA inhibition (1 µM) turn out when TATAACTGGAAGGAGG (sugars k3 d10 k3, PS) was run?
Its target mRNA inhibition is 44%.

How did the target mRNA inhibition (1 µM) turn out when TATAATTACAACCTGG (sugars k3 d10 k3, PS) was run?
The target mRNA inhibition was 46%.

Which target mRNA inhibition (1 µM) does the source give for “TATAGACTGGGTAGGA (sugars k3 d9 k3 e1, PS)” here?
The target mRNA inhibition was 55%.

Which target mRNA inhibition (1 µM) does the source give for TATAGACTGGGTAGGA (sugars k3 d10 k3, PS) here?
The target mRNA inhibition was 61%.

How did the target mRNA inhibition (1 µM) turn out when TATAGCTAAGTATACT (sugars k3 d10 k3, PS) was run?
The target mRNA inhibition was 23%.

How did the target mRNA inhibition (1 µM) turn out when “TATAGTTATCTTCTCA (sugars k3 d9 k3 e1, PS)” was run?
Its target mRNA inhibition is 59%.

Which target mRNA inhibition (1 µM) does the source give for TATCAAAATGGTGGCG (sugars k3 d10 k3, PS) here?
The target mRNA inhibition was 18%.

“TATCAGACTTCTTACG (sugars k3 d1 m1 d8 k3, PS)” was tested. Which target mRNA inhibition (1 µM) did it give?
The target mRNA inhibition was 27%.

Which target mRNA inhibition (1 µM) does the source give for “TATCAGACTTCTTACG (sugars k3 d9 k3 e1, PS)” here?
The target mRNA inhibition was 28%.

For TATCAGACTTCTTACG (sugars k3 d10 k3, PS), which target mRNA inhibition (1 µM) is on record?
Its target mRNA inhibition is 59%.

With “TATCAGACTTCTTACG (sugars kkdddddddddkekek, PS)” as the sequence, how does the target mRNA inhibition (1 µM) read?
The target mRNA inhibition was 32%.

TATGGTAAGCCCCATG (sugars k3 d10 k3, PS) was tested. Which target mRNA inhibition (1 µM) did it give?
The target mRNA inhibition was 30%.

How did the target mRNA inhibition (1 µM) turn out when TATGTAATAGGCAGTA (sugars k3 d10 k3, PS) was run?
Its target mRNA inhibition is 62%.

How did the target mRNA inhibition (1 µM) turn out when TATGTCCAGGTTGAGA (sugars k3 d10 k3, PS) was run?
Its target mRNA inhibition is 64%.

TATGTGAAGAGCTGGT (sugars k3 d10 k3, PS) was tested. Which target mRNA inhibition (1 µM) did it give?
Its target mRNA inhibition is 63%.

“TATGTGATTGAGTTCT (sugars k3 d9 k3 e1, PS)” was tested. Which target mRNA inhibition (1 µM) did it give?
Its target mRNA inhibition is 43%.

With TATGTGATTGAGTTCT (sugars k3 d10 k3, PS) as the sequence, how does the target mRNA inhibition (1 µM) read?
Its target mRNA inhibition is 28%.

“TATGUGATTGAGTTCT (sugars k3 d1 m1 d8 k3, PS)” was tested. Which target mRNA inhibition (1 µM) did it give?
The target mRNA inhibition was 21%.

For TATTAAGACAGTTGAG (sugars k3 d10 k3, PS), which target mRNA inhibition (1 µM) is on record?
Its target mRNA inhibition is 44%.

How did the target mRNA inhibition (1 µM) turn out when TATTAATATGACTTGC (sugars k3 d10 k3, PS) was run?
The target mRNA inhibition was 25%.

TATTAGTTGGCCTGCC (sugars k3 d10 k3, PS) was tested. Which target mRNA inhibition (1 µM) did it give?
Its target mRNA inhibition is 14%.

With TATTATCAGGACTGAA (sugars k3 d10 k3, PS) as the sequence, how does the target mRNA inhibition (1 µM) read?
Its target mRNA inhibition is 63%.

TATTATGCACTCTATA (sugars k3 d10 k3, PS) was tested. Which target mRNA inhibition (1 µM) did it give?
The target mRNA inhibition was 9%.

How did the target mRNA inhibition (1 µM) turn out when TATTCACCACGATTGT (sugars k3 d10 k3, PS) was run?
Its target mRNA inhibition is 2%.

“TATTGGTAAGTATTCC (sugars k3 d9 k3 e1, PS)” was tested. Which target mRNA inhibition (1 µM) did it give?
Its target mRNA inhibition is 48%.

TATTGGTAAGTATTCC (sugars k3 d10 k3, PS) was tested. Which target mRNA inhibition (1 µM) did it give?
Its target mRNA inhibition is 67%.

For TATTTAGGGCAAACCT (sugars k3 d10 k3, PS), which target mRNA inhibition (1 µM) is on record?
The target mRNA inhibition was 40%.

Which target mRNA inhibition (1 µM) does the source give for TATTTCTTGCGAGAAA (sugars k3 d10 k3, PS) here?
The target mRNA inhibition was 30%.

Which target mRNA inhibition (1 µM) does the source give for TCAAAATGGTGGCGAG (sugars k3 d10 k3, PS) here?
The target mRNA inhibition was 31%.

How did the target mRNA inhibition (0.02 µM) turn out when TCAAAGTCAGTATCCC (sugars k3 d10 k3, PS) was run?
The target mRNA inhibition was 5%.

What about the target mRNA inhibition (0.078 µM) of the same sequence?
Its target mRNA inhibition is 19%.

And the target mRNA inhibition (0.313 µM)?
Its target mRNA inhibition is 48%.

What about the target mRNA inhibition (1 µM) of the same sequence?
The target mRNA inhibition was 79%.

What about the target mRNA inhibition (1.25 µM) of the same sequence?
Its target mRNA inhibition is 75%.

What about the target mRNA inhibition (5 µM) of the same sequence?
Its target mRNA inhibition is 88%.

How did the target mRNA inhibition (1 µM) turn out when TCACCTGATTTAGAGA (sugars k3 d10 k3, PS) was run?
Its target mRNA inhibition is 13%.

With “TCACCTTTCATAATGT (sugars k3 d9 k3 e1, PS)” as the sequence, how does the target mRNA inhibition (1 µM) read?
The target mRNA inhibition was 41%.

How did the target mRNA inhibition (1 µM) turn out when TCATAAAAATCGCTGC (sugars k3 d10 k3, PS) was run?
Its target mRNA inhibition is 26%.

Which target mRNA inhibition (1 µM) does the source give for TCATAAACATAGGCTT (sugars k3 d10 k3, PS) here?
The target mRNA inhibition was 58%.

“TCATAGTGGACTTCAT (sugars kkdddddddddkekek, PS)” was tested. Which target mRNA inhibition (1 µM) did it give?
Its target mRNA inhibition is 48%.

Which target mRNA inhibition (1 µM) does the source give for TCATTAGGAAAAGTGT (sugars k3 d10 k3, PS) here?
Its target mRNA inhibition is 16%.

With TCATTCGAATTTCTTC (sugars k3 d10 k3, PS) as the sequence, how does the target mRNA inhibition (0.02 µM) read?
The target mRNA inhibition was 16%.

What about the target mRNA inhibition (0.078 µM) of the same sequence?
The target mRNA inhibition was 31%.

What about the target mRNA inhibition (0.313 µM) of the same sequence?
Its target mRNA inhibition is 54%.

And the target mRNA inhibition (1 µM)?
The target mRNA inhibition was 76%.

What about the target mRNA inhibition (1.25 µM) of the same sequence?
Its target mRNA inhibition is 79%.

And the target mRNA inhibition (5 µM)?
The target mRNA inhibition was 90%.

TCCAAAGATGAGAGTC (sugars k3 d10 k3, PS) was tested. Which target mRNA inhibition (1 µM) did it give?
The target mRNA inhibition was 17%.

TCCAAGTAATTACTTC (sugars k3 d10 k3, PS) was tested. Which target mRNA inhibition (0.02 µM) did it give?
The target mRNA inhibition was 0%.

And the target mRNA inhibition (0.078 µM)?
The target mRNA inhibition was 3%.

And the target mRNA inhibition (0.313 µM)?
The target mRNA inhibition was 23%.

What about the target mRNA inhibition (1 µM) of the same sequence?
The target mRNA inhibition was 72%.

What about the target mRNA inhibition (1.25 µM) of the same sequence?
Its target mRNA inhibition is 43%.

What about the target mRNA inhibition (5 µM) of the same sequence?
Its target mRNA inhibition is 67%.

For TCCACACCGCGCTTAT (sugars k3 d10 k3, PS), which target mRNA inhibition (1 µM) is on record?
Its target mRNA inhibition is 32%.

How did the target mRNA inhibition (1 µM) turn out when TCCAGGTTGAGATAAA (sugars k3 d10 k3, PS) was run?
Its target mRNA inhibition is 70%.

For “TCCATAATAATAGCTC (sugars k3 d9 k3 e1, PS)”, which target mRNA inhibition (1 µM) is on record?
Its target mRNA inhibition is 66%.

For TCCATCATCGATGGAA (sugars k3 d10 k3, PS), which target mRNA inhibition (1 µM) is on record?
Its target mRNA inhibition is 31%.

For TCCATTATCCTTACTC (sugars k3 d10 k3, PS), which target mRNA inhibition (1 µM) is on record?
Its target mRNA inhibition is 15%.

With TCCCTGTGTAAATAAG (sugars k3 d10 k3, PS) as the sequence, how does the target mRNA inhibition (1 µM) read?
Its target mRNA inhibition is 35%.

TCCGTTATAAGTTTCA (sugars k3 d10 k3, PS) was tested. Which target mRNA inhibition (1 µM) did it give?
Its target mRNA inhibition is 65%.

With TCCTAGGGAGGAGGTA (sugars k3 d10 k3, PS) as the sequence, how does the target mRNA inhibition (1 µM) read?
The target mRNA inhibition was 33%.
